Measurements as given in the METLIN SMRT retention time set (Domingo-Almenara et al. 2019).

Assay: gradient 5% acetonitrile 3 min, to 50% in 2 min, to 85% in 15 min, held 3 min, 100 µL/min
Settings: column: Zorbax Extend-C18 2.1 x 50 mm; eluents: water / acetonitrile, 0.1% formic acid
How it was run: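 A Zorbax Extend-C18 column (2.1 × 50 mm, 1.8 μm) run at 100 μL/min with water and acetonitrile, both containing 0.1% formic acid, separated mixtures of ~100 pure standards. The HPLC was coupled to a quadrupole time-of-flight mass spectrometer operated in positive and negative ionization mode, with dead and dwell volumes of 40 μL and 900 μL. Each retention time was taken from a computationally picked adduct peak that was then manually inspected.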

Row | Structure (SMILES) | RP-LC retention time [s]
1 | O=S(=O)(c1cc(-c2nnc(C3CCC3)o2)co1)N1CCc2ccccc2C1 | 1030
2 | Cc1ccc(N2C=C(C(=O)N3CCOCC3)S(=O)(=O)c3ccc(F)cc32)cc1F | 822
3 | Cc1ccc(-c2nc(Cn3c(C)nc4onc(C)c4c3=O)c(C)o2)cc1 | 1170
4 | COc1ccccc1C(=O)NC1(C(F)(F)F)C(=O)N(C2CCCC2)C(C)=C1C(C)=O (centres undefined) | 1000
5 | O=C(Cn1c(=O)oc2ccc(C(=O)N3CCCC3)cc21)NCCCc1ccccc1 | 764
6 | CCCC(=O)Nc1nc2ccc(CCC(=O)Nc3cccc(C(=O)OCC)c3)cc2s1 | 950
7 | CC(C)N1C(=O)c2cccnc2Sc2cc(NC(=O)c3ccccc3F)ccc21 | 896
8 | COc1ccc(-c2noc(N3CCC(C(=O)Nc4cc(C)on4)CC3)n2)cc1OC | 784
9 | Cc1c(-c2cc(NS(=O)(=O)c3ccccc3Cl)n(C)n2)sc2ccc(Cl)cc12 | 1160
10 | O=C(NCCc1csc(-c2ccccc2)n1)C1CCN(C(=O)CCc2ccccc2)CC1 | 859
11 | COC(=O)c1ccc(-c2nc3cnccn3c2NC2CCCCC2)cc1 | 973
12 | COC(=O)c1cc(OCC(=O)NC2CCCCC2)c2cc(OC)ccc2n1 | 791
13 | CC(C)NC(=O)c1ccc(OCC2CCN(C(=O)c3cc(F)ccc3F)CC2)cc1 | 850
14 | CCN1c2cc(F)ccc2C(=O)NC12CCN(C(=O)c1ccc(OC)cc1OC)CC2 | 781
15 | Nc1cccc(-c2nccnc2N2CCCC2)c1 | 595
16 | O=C(C1CCCN(c2cnc3nccnc3c2)C1)N1CCC(Cc2ccccc2)CC1 (centres undefined) | 892
17 | COC(=O)c1sccc1NC(=O)N1CCCn2nc(-c3ccncc3)cc2C1 | 647
18 | CC(CCNC(=O)c1nnc(-c2ccc(S(=O)(=O)N3CCCC3)cc2)o1)N1CCCCCC1 (centres undefined) | 644
19 | Cc1nnc(C2CC3(CCN(CCc4ccccc4)CC3)CN2Cc2ccccc2)o1 (centres undefined) | 656
20 | Cc1ccc(NC(=O)c2c(O)c3cccnc3n(-c3ccc(F)cc3)c2=O)c(F)c1 | 1330
21 | CCCNC(=O)N(C)Cc1cccnc1OCC | 680
22 | O=c1ccc(-c2ccc(F)cc2)nn1CCc1nc(-c2ccc(Cl)cc2)no1 | 1060
23 | C[C@H](NC(=O)[C@@H]1CCCN1C(=O)[C@@H]1CCCN1C(=O)[C@@H](O)[C@H](N)Cc1ccccc1)C(N)=O | 552

Row | Structure (SMILES) | RP-LC retention time [s]
24 | Cc1nc2nc(-c3ccccc3)nn2c(C)c1CC(=O)N1CCCC1 | 679
25 | CCc1ccc(NC(=O)Cn2c(=O)nc(N3CCCC(C)C3)c3ccccc32)cc1 (centres undefined) | 905
26 | CCCc1cc(N2CCN(C(=O)COc3ccccc3)CC2)nc2nnc(C)n12 | 634
27 | O=C(NC1CCCCCCC1)C1CCN(S(=O)(=O)c2cc(C(=O)N3CCOCC3)cs2)CC1 | 838
28 | CC1CC(=O)Nc2ccccc2N1C(=O)COc1ccc(Cl)cc1Cl (centres undefined) | 844
29 | Cc1cccc(C)c1OCC(=O)Nc1nc(-c2ccccc2)cs1 | 1180
30 | Cc1nnc(NC(=O)c2cccc(C(F)(F)F)c2)s1 | 749
31 | COCCCNC(=O)c1ccc(-n2nc(C)c3c2CCCC3=O)cc1 | 660
32 | O=C(Nc1cccc(Br)c1)N1CCN(Cc2nc3cccnc3n2-c2ccccc2)CC1 | 703
33 | O=C(c1ccc(OCC2CCCN2C(=O)C2CCCC2)cc1)N1CCOCC1 (centres undefined) | 750
34 | CC(C)N1C(=O)c2cccnc2Sc2cc(NC(=O)C3CC3)ccc21 | 733
35 | Cc1cc(C)cc(NC(=O)C(C)C2CCN(C(=O)Nc3ccc(F)cc3)CC2)c1 (centres undefined) | 917
36 | Cc1ccc(C(=O)NCCc2nc3cccnc3n2C)s1 | 596
37 | Cc1ccc(CNC(=O)c2cc3sc(Cl)cc3n2C)cc1 | 1110
38 | O=C(NC1CC1)C1CCCN(C(=O)c2cc(-c3ccncc3)n[nH]2)C1 (centres undefined) | 538
39 | Cc1ccc(Nc2c(-c3ccc(N(C)C)cc3)nc3cnccn23)cc1Br | 990
40 | Cc1nn(C(C)C(=O)Nc2ccc(F)cc2F)c(=O)c2c(-n3cccc3)n(-c3ccccc3)nc12 (centres undefined) | 1100
41 | Cc1ccc(Cl)cc1N1CCN(C(=O)C2CCN(c3ncnc4c3oc3ccccc34)CC2)CC1 | 1060
42 | COc1ccc(C(=O)Oc2ccc[nH]c2=O)cc1 | 721
43 | O=C1CCN([C@@H]2O[C@H](CO)[C@@H](O)[C@H]2O)C(=O)N1 | 933
44 | Cc1cc2nn(CC(=O)Nc3cccc(C)c3C)c(=O)n2c(-c2ccc(F)cc2)n1 | 849
45 | O=C(CC(c1cccs1)N1Cc2ccccc2C1=O)N1CCN(c2ccccn2)CC1 (centres undefined) | 632
46 | Cc1ccc(-c2nc3cccc(C)n3c2Nc2ccccc2)cc1 | 741

Row | Structure (SMILES) | RP-LC retention time [s]
47 | COc1cccc(CNC(=O)NCCc2cn(C)c3ncccc23)c1 | 642
48 | CCc1ccc(NS(=O)(=O)c2ccc(-c3nnc(C4CCC4)o3)o2)cc1 | 996
49 | CC(=O)N1CCc2cc(-c3ccc(C(=O)NCCCN4CCCC4=O)cc3)ccc21 | 672
50 | NC(=O)c1cccn1Cc1ccc(Cl)cc1 | 778
51 | CSc1nc(C)c(Br)c(N2CC2)n1 | 596
52 | CN(C)c1ccc(C(=O)Nc2cc(-c3ccccn3)no2)cc1 | 812
53 | COc1ccccc1-c1noc(Cn2c(=O)n(-c3ccccc3C)c(=O)c3sccc32)n1 | 910
54 | Cc1noc([C@@H]2CN(Cc3cccc(Cl)c3)C[C@H]2CO)n1 | 603
55 | CCOc1ccc(NC(=O)Cn2cnc3nc(N4CCCC(C(=O)NC)C4)sc3c2=O)cc1 (centres undefined) | 666
56 | O=C(NC1CCN(c2cc(-c3ccccc3)[nH]n2)C1)c1cc(F)ccc1Cl (centres undefined) | 708
57 | CNC(=O)c1sc2nc(-c3ccccc3)c(NCCOC)n2c1C | 637
58 | CC(=O)c1ccc(NC(=O)c2cc(-c3cccnc3)nc3ccccc23)cc1 | 732
59 | O=C(Cn1cccc(-c2nc(-c3ccc(Cl)cc3)no2)c1=O)N1CCCc2ccccc21 | 1040
60 | Cc1ccc(-n2nc3c(N4CCCC(C(=O)NCCN5CCOCC5)C4)nnc(C)c3c2C)cc1 (centres undefined) | 589
61 | CCOC(=O)CN1CCC(c2nnc(-c3ccc(F)cc3)o2)CC1 | 555
62 | Cc1cccc(Sc2nccnc2N2CCC(C(=O)N3CCCCCC3)CC2)c1 | 1130
63 | O=C(NCc1ccc(F)c(Cl)c1)c1sc2ncccc2c1-n1cccc1 | 1050
64 | Cn1nc(C(=O)N2CCCC2)c2c1CCN(C(=O)Nc1ccccc1Br)C2 | 737
65 | CCCC(=O)N1CCCN(C2=NS(=O)(=O)C(c3ccccc3)=C2C)CC1 | 740
66 | CCN(CC)c1ncc2c(n1)CCC(C(=O)Nc1ccc(OC)cc1C)C2 (centres undefined) | 674
67 | CCNC(=O)c1cc(C)nc2c(C)cc(C)cc12 | 594
68 | Cc1ccc(C)c(NC(=O)c2csc(-c3ccc(N4CCCC4)nc3)n2)c1 | 830
69 | CCn1ccc2cc(S(=O)(=O)N3CCCC(C(=O)NCCCN4CCOCC4)C3)ccc21 (centres undefined) | 648

Row | Structure (SMILES) | RP-LC retention time [s]
70 | O=C(O)c1cn(-c2ccc(F)c(F)c2)nn1 | 664
71 | COc1ccc(Br)cc1CNC(=O)Cn1cc(-c2nnc(C)o2)c2ccccc21 | 847
72 | COc1cccc(-c2noc(Cn3c(=O)n(-c4ccc(F)cc4)c(=O)c4sccc43)n2)c1 | 952
73 | CCOc1ccc(CNC(=O)CC2CCN(C(=O)c3[nH]c(C)c(C(=O)OC)c3C)CC2)cc1 | 750
74 | N#Cc1ccc(N2C=C(C(=O)N3CCOCC3)S(=O)(=O)c3ccc(Cl)cc32)cc1 | 764
75 | COc1ccc(-c2nnc(-c3cc(S(=O)(=O)N4CCC(C(=O)O)CC4)ccc3Cl)o2)cc1 | 875
76 | COc1ccccc1OCCNC(=O)Cn1nc2c(cc1=O)CCCC2 | 704
77 | Cc1cc(C(=O)N2CCN(CCNC(=O)c3ccsc3)CC2)c(C)o1 | 554
78 | CC1CCCN(CC2CCN(S(=O)(=O)c3ccc(C#N)cc3)CC2)C1 (centres undefined) | 644
79 | CCn1nc(C(=O)Nc2cccc3c2C(=O)N(C)C3=O)cc1C | 856
80 | CCc1cc(C(=O)Nc2ccccc2F)nc2ccnn12 | 1060
81 | Cn1c(C(=O)N(CCc2ccccc2)Cc2ccccc2)cc2c(=O)n3ccccc3nc21 | 1030
82 | COc1ccc(-c2nc(Cn3c(=O)c4c(C)cc(C)nc4n(C)c3=O)c(C)o2)cc1OC | 1100
83 | COCCCNC(=O)c1ccc(-c2nc(CN3CCc4ccccc43)c(C)o2)cc1 | 951
84 | CC(C)N1CCN(Cc2ccc(C(=O)NCc3cccc(C(F)(F)F)c3)cc2)C(=O)C1=O | 766
85 | Cc1cccc(N2CCN(S(=O)(=O)c3cc(-c4nnc(C5CC5)o4)co3)CC2)c1 | 1020
86 | O=C(NCc1ccccn1)c1nnn(Cc2ccccc2Cl)c1-n1cccc1 | 712
87 | Cc1nn2c(S(=O)(=O)NCC3CC3)c(C)nc2s1 | 690
88 | CCOC(=O)c1c(C)[nH]c(C(=O)N2CCCC(C(=O)NC3CCCC3)C2)c1C (centres undefined) | 759
89 | Cc1nc(CC(=O)Nc2ccc(F)cc2F)sc1C(=O)NC1CC1 | 696
